Values after ≈ are worked out from the molar mass of the structure shown.

Experimental findings from ChEMBL document CHEMBL2046364, “Synthesis and evaluation of novel 3a,9a-dihydro-1-ethoxycarbonyl-1-cyclopenteno[5,4-b]benzopyran-4-ones as antifungal agents” (2012) are described below.

Holding throughout (assay type): functional
A short description of assay [1]: Antifungal activity against Epidermophyton MTCC 613 by spectrophotometry based assay.
The test system of assay [2] is Aspergillus niger. The experiment in a line: Antifungal activity against Aspergillus niger MTCC 2642 by spectrophotometry based assay.
The test system of assay [3] is Saccharomyces cerevisiae. In words: Antifungal activity against Saccharomyces cerevisiae MTCC 1344 by spectrophotometry based assay.
Assay [4] deals with Candida albicans. The experiment in a line: Antifungal activity against Candida albicans MTCC 3018 by spectrophotometry based assay.
Assay [5] in a line: Antifungal activity against Cryptococcus gastricus MTCC 1715 by spectrophotometry based assay. The note with it: Goffeauzyma gastrica.

Consider `CCOC(=O)C1=CC[C@H]2C(=O)c3cc(C)ccc3O[C@H]12`, for which the MIC in assay [1], in assay [2] and in assay [3] was more than 100 µg/mL each time.

Turning to `CCOC(=O)C1=CC[C@H]2C(=O)c3cc(F)c(Cl)cc3O[C@H]12`, the MIC is more than 100 µg/mL in assay [4], 100 µg/mL (≈ 322 µM) in assay [2] and 25 µg/mL (≈ 80.5 µM) in assay [3].

For `CCOC(=O)C1=CC[C@H]2C(=O)c3cc(Br)ccc3O[C@H]12`, the MIC in assay [2] and in assay [3] was 50 µg/mL (≈ 148 µM) each time.

Turning to `CCOC(=O)C1=CC[C@H]2C(=O)c3ccccc3O[C@H]12`, the MIC in assay [1] is more than 100 µg/mL; in assay [4], 25 µg/mL (≈ 96.8 µM); in assay [2], 25 µg/mL (≈ 96.8 µM); in assay [3], 50 µg/mL (≈ 194 µM).

`CCOC(=O)C1=CC[C@H]2C(=O)c3ccc(Cl)cc3O[C@H]12`: the MIC came out at 50 µg/mL (≈ 171 µM) in assay [4], 25 µg/mL (≈ 85.4 µM) in assay [2] and 25 µg/mL (≈ 85.4 µM) in assay [3].

Regarding `CCOC(=O)C1=CC[C@H]2C(=O)c3cccc(Cl)c3O[C@H]12`, the MIC in assay [5] is more than 100 µg/mL; in assay [1], 50 µg/mL (≈ 171 µM); in assay [4], 50 µg/mL (≈ 171 µM); in assay [2] it was 12.5 µg/mL (≈ 42.7 µM); in assay [3], 12.5 µg/mL (≈ 42.7 µM).

Turning to `CCOC(=O)C1=CC[C@H]2C(=O)c3ccc(F)cc3O[C@H]12`, the minimum inhibitory concentration (MIC) came out at 100 µg/mL (≈ 362 µM) in assay [5]; 50 µg/mL (≈ 181 µM) in assay [1]; 25 µg/mL (≈ 90.5 µM) in assay [4]; 12.5 µg/mL (≈ 45.2 µM) in assay [2]; 12.5 µg/mL (≈ 45.2 µM) in assay [3].

For the molecule `CCOC(=O)C1=CC[C@H]2C(=O)c3cc(F)ccc3O[C@H]12`, the MIC in assay [1] was more than 100 µg/mL; in assay [2], more than 100 µg/mL; in assay [3] it was 25 µg/mL (≈ 90.5 µM).

Regarding `CCOC(=O)C1=CC[C@H]2C(=O)c3cc(Cl)ccc3O[C@H]12`, the minimal inhibitory concentration (MIC) in assay [4] was 50 µg/mL (≈ 171 µM); in assay [2], 12.5 µg/mL (≈ 42.7 µM); in assay [3], more than 100 µg/mL.

As for `CCOC(=O)C1=CC[C@H]2C(=O)c3ccc(Br)cc3O[C@H]12`, the MIC in assay [2] and in assay [3] was 100 µg/mL (≈ 297 µM) in each case.

Consider `OC(Cn1cncn1)(Cn1cncn1)c1ccc(F)cc1F` [FLUCONAZOLE], for which the MIC in assay [5] turned out to be 6.25 µg/mL (≈ 20.4 µM); in assay [1], 6.25 µg/mL (≈ 20.4 µM); in assay [4], 3.12 µg/mL (≈ 10.2 µM); in assay [2], 1.5 µg/mL (≈ 4.9 µM); in assay [3], 1.5 µg/mL (≈ 4.9 µM).
